How the values were obtained:
[1] = target: T1, human KDR kinase (Homo sapiens, UniProt P35968); assay: KDR Kinase Assay (LanthaScreen TR-FRET enzymatic assay); format: biochemical; settings: 1.2 nM KDR, 92 μM ATP
T1 construct: purchased Carna 08-191
Experimental: Compounds were tested in a LanthaScreen™ time-resolved fluorescence energy transfer (TR-FRET) enzymatic assay from Invitrogen. The assay used human KDR kinase (Carna 08-191). Test compounds were prepared and diluted in DMSO in 3-fold serial dilutions to 50× of the final testing concentrations. The compounds were then further diluted to 5× by the kinase reaction buffer (50 mM HEPES pH 7.5, 0.0015% Brij-35). The enzymatic reaction for compound testing was performed in a white 384-well polypropylene plate (Corning 3573) with a total reaction volume of 25 μl containing 1.2 nM KDR, 3 μM peptide substrate FAM-P22 (GL Biochem 112393), and 92 μM ATP (Sigma A7699-1G). The assay started with loading RET diluted in kinase reaction buffer to wells, followed by addition of equal volume of 5× compounds for 15-min incubation at the room temperature for pre-treatment. The enzymatic reaction was initiated by addition of mixture of the substrate and ATP prepared in kinase reaction buffer. After incubation at 28° C. for one hour, 25 μl of stopper buffer (a mixture of 100 mM HEPES pH 7.5 buffer, 0.015% Brij-35, 50 mM EDTA and 0.2% of coating reagent 3 (Cliper Lifesciences)) and produce TR-FRET signals. After 30 minutes of incubation at room temperature, the plate was read in a Caliper with the following settings: Excitation 340 nm (30)/Emission1 495 nm (10)/Emission2 520 nm (25). The TR-FRET values were dimensionless numbers that were calculated as the ratio of the acceptor ([…]) signal to the donor (Terbium) signal. Percent of control was calculated as the percentage of compound-treated vs 1% DMSO vehicle-treated. The dose-response curves were generated and the IC50s were calculated by nonlinear sigmoid curve fitting using XLFit.

[2] = test system: TT cells; assay: TT Cell Proliferation Assay (WST-8, 8 days); format: cell-based; settings: Homo sapiens, TT, 192 h, growth inhibition in TT cells, read-out: TT Cellular Activity
Experimental: Compounds disclosed herein were tested for the inhibition of RET by a cancer cell proliferation assay commonly known as MTT assay. In this assay, a complete media was prepared by adding 10% fetal bovine serum to RPMI-1640 medium (Life technology). TT cells were added to each of 88 wells of a 96 well plate at a seeding density of 6,000 cells/well/90 μL. The cells were allowed to attach to the plate by incubating at 37° C. for 24 hours. The compound was dissolved in DMSO (SIGMA). A solution of test compound was prepared in complete media by serial dilution to obtain the following concentrations: 50 μM, 15 μM, 5 μM, 1.5 μM, 0.5 μM, 0.15 μM, 0.05 μM, 0.015 μM and 0.005 μM. The test compound solution (10 μL) was added to each of 80 cell-containing wells. The final concentrations of the compound were following: 5 μM, 1.5 μM, 0.5 μM, 0.15 μM, 0.05 μM, 0.015 μM, 0.005 μM, 0.0015 μM and 0.0005 μM. The final concentration of DMSO is 0.5%. To the 8 remaining cell-containing wells, only complete media (containing 0.5% DMSO) was added to form a control group in order to measure maximal proliferation. To the remaining 8 empty wells, complete media was added to for a vehicle control group in order to measure background. The plates were incubated at 37° C. for 8 days. 10 μL WST-8 solution (DOJINDO, Cell Counting KIT-8) was added to each well. The plates were further incubated at 37° C. for 5 hours, and then read for the absorbance using a microplate reader at 450 nm. The IC50 was calculated using GraphPad Prism.

[3] = target: T2, human RET kinase (Homo sapiens, UniProt P07949); assay: RET Kinase Assay (LanthaScreen TR-FRET enzymatic assay); format: biochemical; settings: 7 nM RET, 23 μM ATP
T2 construct: purchased Carna 08-159
Experimental: Compounds were tested in a LanthaScreen™ time-resolved fluorescence energy transfer (TR-FRET) enzymatic assay from Invitrogen. The assay used human RET kinase (Carna 08-159). Test compounds were prepared and diluted in DMSO in 3-fold serial dilutions to 50× of the final testing concentrations. The compounds were then further diluted to 5× by the kinase reaction buffer (50 mM HEPES pH 7.5, 0.0015% Brij-35). The enzymatic reaction for compound testing was performed in a white 384-well polypropylene plate (Corning 3573) with a total reaction volume of 25 μl containing 7 nM RET, 3 μM peptide substrate FAM-P2 (GL Biochem 112394), and 23 μM ATP (Sigma A7699-1G). The assay started with loading RET diluted in kinase reaction buffer to wells, followed by addition of equal volume of 5× compounds for 15-min incubation at the room temperature for pre-treatment. The enzymatic reaction was initiated by addition of mixture of the substrate and ATP prepared in kinase reaction buffer. After incubation at 28° C. for one hour, 25 μl of stopper buffer (a mixture of 100 mM HEPES pH 7.5 buffer, 0.015% Brij-35, 50 mM EDTA and 0.2% of coating reagent 3 (Cliper Lifesciences)) and produce TR-FRET signals. After 30 minutes of incubation at room temperature, the plate was read in a Caliper with the following settings: Excitation 340 nm (30)/Emission1 495 nm (10)/Emission2 520 nm (25). The TR-FRET values were dimensionless numbers that were calculated as the ratio of the acceptor ([…]) signal to the donor (Terbium) signal. Percent of control was calculated as the percentage of compound-treated vs 1% DMSO vehicle-treated. The dose-response curves were generated and the IC50s were calculated by nonlinear sigmoid curve fitting using XLFit.

T2 sequence (P07949 29-1114): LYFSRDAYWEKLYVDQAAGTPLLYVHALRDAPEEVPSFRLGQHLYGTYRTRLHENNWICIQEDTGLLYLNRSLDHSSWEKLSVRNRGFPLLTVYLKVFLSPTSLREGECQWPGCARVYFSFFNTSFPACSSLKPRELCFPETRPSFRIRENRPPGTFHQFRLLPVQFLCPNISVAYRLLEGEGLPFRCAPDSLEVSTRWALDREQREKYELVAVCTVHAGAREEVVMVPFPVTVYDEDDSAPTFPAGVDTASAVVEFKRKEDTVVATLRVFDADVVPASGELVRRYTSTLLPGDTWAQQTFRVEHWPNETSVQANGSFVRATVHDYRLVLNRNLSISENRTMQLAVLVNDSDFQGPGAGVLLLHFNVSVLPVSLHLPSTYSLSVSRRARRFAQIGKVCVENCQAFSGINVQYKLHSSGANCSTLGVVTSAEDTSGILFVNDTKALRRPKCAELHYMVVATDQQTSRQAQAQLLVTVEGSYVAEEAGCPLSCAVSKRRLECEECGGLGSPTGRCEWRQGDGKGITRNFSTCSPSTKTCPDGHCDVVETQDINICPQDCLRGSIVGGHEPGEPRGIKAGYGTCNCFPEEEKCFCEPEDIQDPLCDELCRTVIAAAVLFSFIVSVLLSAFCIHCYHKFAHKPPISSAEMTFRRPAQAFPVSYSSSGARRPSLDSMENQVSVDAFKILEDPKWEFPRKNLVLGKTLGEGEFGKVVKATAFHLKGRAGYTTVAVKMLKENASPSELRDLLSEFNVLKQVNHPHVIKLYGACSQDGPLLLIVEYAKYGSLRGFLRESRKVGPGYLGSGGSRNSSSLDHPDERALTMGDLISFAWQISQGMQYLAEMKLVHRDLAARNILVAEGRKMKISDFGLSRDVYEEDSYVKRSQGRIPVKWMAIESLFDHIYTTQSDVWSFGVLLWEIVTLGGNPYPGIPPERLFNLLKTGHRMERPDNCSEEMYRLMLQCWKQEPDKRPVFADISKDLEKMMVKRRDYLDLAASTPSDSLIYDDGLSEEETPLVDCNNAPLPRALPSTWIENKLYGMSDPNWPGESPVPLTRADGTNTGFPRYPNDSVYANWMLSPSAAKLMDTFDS
T1 sequence (P35968 20-1356): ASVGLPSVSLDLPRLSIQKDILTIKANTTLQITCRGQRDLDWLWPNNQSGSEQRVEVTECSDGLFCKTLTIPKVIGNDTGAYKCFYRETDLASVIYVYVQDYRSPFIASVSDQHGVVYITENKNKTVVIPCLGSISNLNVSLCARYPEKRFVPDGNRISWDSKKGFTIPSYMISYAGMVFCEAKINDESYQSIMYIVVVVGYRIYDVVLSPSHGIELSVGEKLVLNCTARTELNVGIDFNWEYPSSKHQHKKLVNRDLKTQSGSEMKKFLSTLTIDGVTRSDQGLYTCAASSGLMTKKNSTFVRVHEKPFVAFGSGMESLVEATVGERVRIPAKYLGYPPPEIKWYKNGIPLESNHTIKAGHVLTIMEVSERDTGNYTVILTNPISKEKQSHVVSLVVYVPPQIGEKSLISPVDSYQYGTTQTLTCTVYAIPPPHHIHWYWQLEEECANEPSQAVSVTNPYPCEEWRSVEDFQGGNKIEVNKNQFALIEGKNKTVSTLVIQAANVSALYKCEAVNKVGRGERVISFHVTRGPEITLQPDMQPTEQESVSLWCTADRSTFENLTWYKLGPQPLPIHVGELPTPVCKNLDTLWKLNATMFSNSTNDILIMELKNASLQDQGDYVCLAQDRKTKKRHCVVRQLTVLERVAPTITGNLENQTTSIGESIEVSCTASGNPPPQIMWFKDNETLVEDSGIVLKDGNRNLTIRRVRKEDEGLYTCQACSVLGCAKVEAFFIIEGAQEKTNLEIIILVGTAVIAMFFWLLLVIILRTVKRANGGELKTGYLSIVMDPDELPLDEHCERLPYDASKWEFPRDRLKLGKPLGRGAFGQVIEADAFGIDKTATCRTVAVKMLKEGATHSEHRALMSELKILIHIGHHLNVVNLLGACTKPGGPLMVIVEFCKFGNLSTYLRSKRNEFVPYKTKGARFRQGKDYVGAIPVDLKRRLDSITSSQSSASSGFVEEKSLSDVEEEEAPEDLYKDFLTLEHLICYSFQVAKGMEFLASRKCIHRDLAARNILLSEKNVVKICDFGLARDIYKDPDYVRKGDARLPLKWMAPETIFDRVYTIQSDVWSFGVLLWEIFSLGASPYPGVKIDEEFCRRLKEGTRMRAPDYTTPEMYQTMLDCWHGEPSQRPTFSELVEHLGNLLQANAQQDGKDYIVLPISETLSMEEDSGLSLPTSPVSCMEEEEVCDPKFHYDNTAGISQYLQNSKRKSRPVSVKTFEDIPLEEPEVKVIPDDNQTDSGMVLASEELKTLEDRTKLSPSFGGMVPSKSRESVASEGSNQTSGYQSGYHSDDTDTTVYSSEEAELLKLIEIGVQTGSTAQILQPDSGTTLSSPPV

SMILES | IC50 [1] [nM] | IC50 [3] [nM] | IC50 [2] [nM]
Cn1ccc(-c2cc(-c3cnc(N4C[C@@H]5C[C@@](C)(NC(=O)c6ncccc6F)C[C@@H]5C4)cn3)c3c(C#N)cnn3c2)n1 [Example 140, N-((3aR,5s,6aS)-2-(5-(3-cyano-6-(1-methyl-1H-pyrazol-3-yl)pyrazolo[1,5-a]pyridin-4-yl)pyrazin-2-yl)-5-methyloctahydrocyclopenta[c]pyrrol-5-yl)-3-fluoropicolinamide] | 10 to 50 | ≤ 10 | 10 to 50
COc1ccc(NC(=O)[C@H]2[C@@H]3CN(c4ccc(-c5cc(OCC(C)(C)O)cn6ncc(C#N)c56)cn4)C[C@@H]32)cn1 [Example 175, (1R,5S,6r)-3-(5-(3-cyano-6-(2-hydroxy-2-methylpropoxy)pyrazolo[1,5-a]pyridin-4-yl)pyridin-2-yl)-N-(6-methoxypyridin-3-yl)-3-azabicyclo[3.1.0]hexane-6-carboxamide] |  | ≤ 10 | 
CC(=O)NC12CC3CC(C1)N(c1ccc(-c4cc(OCC(C)(C)O)cn5ncc(C#N)c45)cn1)C(C3)C2 [Example 130, N-((1R,3S,5s,7s)-2-(5-(3-cyano-6-(2-hydroxy-2-methylpropoxy)pyrazolo[1,5-a]pyridin-4-yl)pyridin-2-yl)-2-azaadamantan-5-yl)acetamide] | > 100 | ≤ 10 | 
CCOc1cc(-c2ccc(N3C[C@H]4C[C@H](NC(=O)c5ncccc5Cl)C[C@H]4C3)nc2)c2c(C#N)cnn2c1 [Example 49, 3-chloro-N-((3aR,5s,6aS)-2-(5-(3-cyano-6-ethoxypyrazolo[1,5-a]pyridin-4-yl)pyridin-2-yl)octahydrocyclopenta[c]pyrrol-5-yl)picolinamide] | 10 to 50 |  | 10 to 50
CCOc1cc(-c2ccc(N3C[C@@H]4[C@H](C3)[C@@H]4NC(=O)c3ncccc3Cl)nc2)c2c(C#N)cnn2c1 [Example 43, 3-chloro-N-((1R,5S,6r)-3-(5-(3-cyano-6-ethoxypyrazolo[1,5-a]pyridin-4-yl)pyridin-2-yl)-3-azabicyclo[3.1.0]hexan-6-yl)picolinamide] | > 100 |  | > 100
CCOc1cc(-c2ccc(N3C4CC5CC3CC(C(=O)Nc3ccc(OC)nc3)(C5)C4)nc2)c2c(C#N)cnn2c1 [Example 134, (1R3S,5s,7s)-2-(5-(3-cyano-6-ethoxypyrazolo[1,5-a]pyridin-4-yl)pyridin-2-yl)-N-(6-methoxypyridin-3-yl)-2-azaadamantane-5-carboxamide] |  | ≤ 10 | 
CCOc1cc(-c2ccc(N3C[C@@H]4[C@H](C3)[C@H]4NC(=O)c3ncccc3Cl)nc2)c2c(C#N)cnn2c1 [Example 38, 3-chloro-N-((1R,5S,6s)-3-(5-(3-cyano-6-ethoxypyrazolo[1,5-a]pyridin-4-yl)pyridin-2-yl)-3-azabicyclo[3.1.0]hexan-6-yl)picolinamide] | > 100 |  | > 100
CCOc1cc(-c2ccc(N3C[C@@H]4C[C@@](C)(NC(=O)c5ncccc5Cl)C[C@@H]4C3)nc2)c2c(C#N)cnn2c1 [Example 51, 3-chloro-N-((3aR,5s,6aS)-2-(5-(3-cyano-6-ethoxypyrazolo[1,5-a]pyridin-4-yl)pyridin-2-yl)-5-methyloctahydrocyclopenta[c]pyrrol-5-yl)picolinamide] | 10 to 50 |  | 10 to 50
COc1ccc(NC(=O)C23CC4CC(C2)N(c2cnc(-c5cc(-c6cnn(C)c6)cn6ncc(C#N)c56)cn2)C(C4)C3)cn1 [Example 114, (1R,3S,5s,7s)-2-(5-(3-cyano-6-(1-methyl-1H-pyrazol-4-yl)pyrazolo[1,5-a]pyridin-4-yl)pyrazin-2-yl)-N-(6-methoxypyridin-3-yl)-2-azaadamantane-5-carboxamide] |  | ≤ 10 | 
CCOc1cc(-c2ccc(N3C[C@@H]4[C@@H](CNC(=O)c5ncccc5Cl)[C@@H]4C3)nc2)c2c(C#N)cnn2c1 [Example 94, 3-chloro-N-(((1R,5S,6s)-3-(5-(3-cyano-6-ethoxypyrazolo[1,5-a]pyridin-4-yl)pyridin-2-yl)-3-azabicyclo[3.1.0]hexan-6-yl)methyl)picolinamide] | 50 to 100 |  | 10 to 50

Continued, in another order:

IC50 [1] [nM] | IC50 [3] [nM] | SMILES | IC50 [2] [nM]
10 to 50 | ≤ 10 | Cn1cc(-c2cc(-c3ccc(N4C[C@H]5CN(C(=O)C(O)c6ccccc6)C[C@H]5C4)nc3)c3c(C#N)cnn3c2)cn1 (stereo partly drawn) [Example 3, 4-(6-((3aR,6aS)-5-(2-hydroxy-2-phenylacetyl)hexahydropyrrolo[3,4-c]pyrrol-2(1H)-yl)pyridin-3-yl)-6-(1-methyl-1H-pyrazol-4-yl)pyrazolo[1,5-a]pyridine-3-carbonitrile] | 10 to 50
10 to 50 | ≤ 10 | COc1ccc(CN[C@H]2[C@@H]3CN(c4ccc(-c5cc(-c6cnn(C)c6)cn6ncc(C#N)c56)cn4)C[C@@H]32)cn1 [Example 33, 4-(6-((1R,5S,6s)-6-(((6-methoxypyridin-3-yl)methyl)amino)-3-azabicyclo[3.1.0]hexan-3-yl)pyridin-3-yl)-6-(1-methyl-1H-pyrazol-4-yl)pyrazolo[1,5-a]pyridine-3-carbonitrile] | 10 to 50
10 to 50 |  | CCOc1cc(-c2ccc(N3C[C@H]4C[C@@H](NC(=O)c5ncccc5Cl)C[C@H]4C3)nc2)c2c(C#N)cnn2c1 [Example 48, 3-chloro-N-((3aR,5r,6aS)-2-(5-(3-cyano-6-ethoxypyrazolo[1,5-a]pyridin-4-yl)pyridin-2-yl)octahydrocyclopenta[c]pyrrol-5-yl)picolinamide] | ≤ 10
≤ 10 | ≤ 10 | Cn1cc(-c2cc(-c3ccc(N4C[C@@H]5[C@@H](CNC(=O)c6c(F)cccc6Cl)[C@@H]5C4)nc3)c3c(C#N)cnn3c2)cn1 [Example 187, 2-chloro-N-(((1R,5S,6s)-3-(5-(3-cyano-6-(1-methyl-1H-pyrazol-4-yl)pyrazolo[1,5-a]pyridin-4-yl)pyridin-2-yl)-3-azabicyclo[3.1.0]hexan-6-yl)methyl)-6-fluorobenzamide] | 
10 to 50 | ≤ 10 | COc1ccc(C(=O)N[C@]2(C)C[C@H]3CN(c4ccc(-c5cc(-c6ccn(C)n6)cn6ncc(C#N)c56)cn4)C[C@H]3C2)cn1 [Example 122, N-((3aR,5s,6aS)-2-(5-(3-cyano-6-(1-methyl-1H-pyrazol-3-yl)pyrazolo[1,5-a]pyridin-4-yl)pyridin-2-yl)-5-methyloctahydrocyclopenta[c]pyrrol-5-yl)-6-methoxynicotinamide] | 
